Where only a bound is given, the exact number is not on record here.

Results on 2 molecules are retold here after PMC4935606 (Organic & biomolecular chemistry, 2016).

A short description of series [1]: Spontaneous conversion of 1 to 13 under the assay conditions. In kind it is physicochemical. As to conditions: 90 min, in the presence or absence of DTT.
A short description of series [2]: Side-by-side LCMS/UV solution stability study. The following applies: 0.1 mg/mL in DMSO/H2O (5:1), within 24 h. The class given is physicochemical.
A further series relates to cells. The following applies: ref 7b; cited from earlier work.
The next series relates to tumor cell. The following applies: cited from earlier work.
The next series addresses recombinant human PTP4A3 (Homo sapiens, UniProt O75365). Description: In vitro PTP4A3 phosphatase inhibition assay with DiFMUP substrate. The class given is biochemical.

recombinant human PTP4A3, sequence (O75365 whole entry): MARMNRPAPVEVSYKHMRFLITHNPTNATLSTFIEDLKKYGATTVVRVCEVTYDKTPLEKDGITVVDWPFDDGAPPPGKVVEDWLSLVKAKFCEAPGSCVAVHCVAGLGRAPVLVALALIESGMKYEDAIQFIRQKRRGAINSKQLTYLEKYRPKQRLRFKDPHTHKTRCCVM

On to `Nc1c[nH]c(=O)c2cc(-c3ccccc3)sc12` [Compound 1], for which, in series [1], the “Spontaneous conversion of 1 to 13” value was no more than 5%. Besides, the Decomposition in series [2] was greater than 80%. Besides, the “Short-term cytotoxicity in cells” value in the series with cells is recorded as “does not have any short-term cytotoxicity”. Also, the “Inhibition of tumor cell anchorage-independent growth” value in the series with tumor cell is “Significant inhibition”.

A word on the IC50: it is the midpoint of a concentration-inhibition curve. For the molecule `O=c1[nH]ccc2sc(-c3ccccc3)cc12` [Compound 12], on recombinant human PTP4A3 (qualitative statement), the “PTP4A3 inhibition (in words)” value was “remarkably less active than 1”. Moreover, on recombinant human PTP4A3 (read-out: IC50 [µM±S.D.], inhibition of PTP4A3 activity, n=3, DiFMUP 12 µM, 25 °C, 30 min, pH 7.0, 4 mM DTT), the IC50 was greater than 80 µM.
